We go through 2 compounds from patent publication US20170190726A9, “PRODRUG FOR RELEASE OF CISPLATIN AND CYCLOOXYGENASE INHIBITOR” (priority 2013, published 2017).

Experiment [1] deals with PC3 cells. As to the kind of experiment: Apoptosis detection by annexin V/PI assay. The class given is cell-based, Human. As to conditions: 25 μM, 6 h. The text has this: High expression of COX-2 is found in various cancers, however, for PCa cell lines as well as tissue, contradictory results exist. We therefore tested anti-proliferative properties of Platin-A on androgen-responsive LNCaP and androgenunresponsive PC3 and DU145 PCa cells that differ in their malignant potentials. […] However, in LNCaP cells, Platin-A activity was better than an equimolar mixture of cisplatin and aspirin. In general, Pt(IV) compounds are less cytotoxic compared to their active Pt(II) form. […] To evaluate whether Platin-A-dependent inhibition of cancer cell proliferation is associated with apoptosis, Alexa Fluor® 488 annexin V/propidium iodide (PI) staining assay was carried out in PC3 cells and the data were analyzed by fluorescence assisted cell sorting. […]
PC3 cells were seeded at a density of 1×10^6 cells/mL on each well of a six well plate and allowed to grow overnight. […] Cell density was determined and cells were resuspended in 1× annexinVbinding buffer to 1×10^6 cells/mL preparing a sufficient volume to have 100 μL per assay. […] After the incubation period, 400 μL of 1× annexin-binding buffer was added to each sample, samples were gently mixed keeping the samples on ice, and the samples were analyzed on the flow cytometer immediately.

A further experiment relates to IL-6. As to the kind of experiment: ELISA of IL-6 in LPS-stimulated RAW 264.7 macrophages. The class given is cell-based, mouse. As to conditions: for LPS-induced IL-6 production: preventive: pretreatment 10 μM 6 h, then LPS 12 h.
The subject of another experiment is TNF-α. The experiment can be described thus: ELISA of TNF-α in LPS-stimulated RAW 264.7 macrophages. The class given is cell-based, mouse. The following applies: for LPS-induced TNF-α production: preventive: pretreatment 10 μM 6 h, then LPS 12 h.
For another experiment, the system named is LNCaP cells. As to the kind of experiment: MTT cytotoxicity assay in LNCaP cells. It counts as cell-based, Human. The following applies: 72 h. The protocol:
(§1) Human prostate cancer cell lines LNCaP, PC3, and DU145 and RAW 264.7 macrophages were procured from the American type culture collection (ATCC). DU145 cells were grown at 37° C. in 5% CO2 in Eagle's minimum essential medium (EMEM) supplemented with 10% fetal bovine serum (FBS) and 1% penicillin/streptomycin. […] Cells were passed every 3 to 4 days and restarted from frozen stocks upon reaching pass number 20. The cytotoxic behaviors of cisplatin, aspirin, cisplatin+aspirin, and Platin-A were evaluated using the MTT assay against PC3, DU145, LNCaP, and RAW 264.7 cells. […] The cells were treated with different constructs at varying concentrations and incubated for 72 h at 37° C. except for RAW 264.7 macrophages. […] The cells were then treated with 20 μL of MTT (5 mg/mL in PBS) for 5 h. […] Each well was performed in triplicate. […] The IC50 values were reported at +95% confidence intervals.

Experiment [2] concerns PC3 cells. The experiment can be described thus: MTT cytotoxicity assay in PC3 cells. The class given is cell-based, Human. The following applies: 72 h. The protocol: as §1
Another experiment deals with DU145 cells. As to the kind of experiment: MTT cytotoxicity assay in DU145 cells. It counts as cell-based, Human. The following applies: 72 h. On the procedure:
as §1

The mark [3] stands for this setting: therapeutic: LPS activated macrophages then 10 μM for 12 h.

Protocol for IL-6: (§2) RAW 264.7 cells were plated at a concentration of 10,000 cells/mL in 96 plates and allowed to grow overnight. For preventative anti-inflammatory treatment, Platin-A (10 μM), aspirin (10 μM), cisplatin (10 μM) and an equimolar ratio of cisplatin and aspirin (10 μM each) was incubated with the RAW cells for 6 h. Lipopolysaccharide (LPS) (100 ng/mL) was added and the cells were further incubated for 12 h. For therapeutic anti-inflammatory treatment, LPS (100 ng/mL) was added to the RAW cells and incubated for 6 h. Platin-A (10 μM), aspirin (10 μM), cisplatin (10 μM) and an equimolar ratio of cisplatin and aspirin (10 μM each) was then added to the cells and incubated for 12 h. ELISA was performed on the supernatants against the cytokines interleukin (IL)-6, IL-10, and TNF-α. Briefly, antibody coated plates were blocked with 10% FBS in PBS for 1 h at room temperature followed by 3 washes. RAW cell supernatants were incubated on the plates for 2 h at room temperature. This was immediately followed by washings and sequential incubations with the cytokine-biotin conjugate and streptavidin working solution. Finally, the substrate reagent containing 3,3′,5,5′-tetramethylbenzidine (100 μL) was added to each well, incubated for 15 min, the reaction was stopped by adding 50 μL H2SO4 (0.1 M). The absorbance was recorded at 450 nm using a BioTek Synergy HT well plate reader.
Protocol for TNF-α: as §2

Regarding `CC(=O)Oc1ccccc1C(=O)O` [Aspirin, Acetylsalicylic acid], the “apoptosis induction (annexin V/PI)” value with PC3 cells [1] is on record as “did not show any changes in healthy PC3 populations”. Further, the “LPS-induced IL-6 production” value with IL-6 is recorded as “did not show any preventive action”. For the same compound, the “LPS-induced TNF-α production” value with TNF-α is recorded as “did not show any preventive action”.
Consider `N.N.[Cl][Pt][Cl]` [Cisplatin, Cis-diamminedichloroplatinum(II)], for which the “LPS-induced IL-6 production” value in the experiment on IL-6 is “did not show any preventive action”. In addition, the “levels of IL-6” value with IL-6 (setting [3]) is “did not show any effect”. Besides, the IC50 in the experiment with LNCaP cells was determined as 15 ± 1 µM; with PC3 cells [2] it was 14 ± 4 µM; with DU145 cells, 5 ± 2 µM. Moreover, the “LPS-induced TNF-α production” value in the experiment with TNF-α was “did not show any preventive action”. Moreover, the “levels of TNF-α” value in the experiment with TNF-α (setting [3]) was “did not show any effect”.
